Test results: US8420640B2, “Methods of treating amyloid disease using analogs of 1-(4-nitrophenyl) piperazine” (Treventis Corporation, priority 2008, dated 2013)

Key:
[1] = biological target: T1, alpha-synuclein (Homo sapiens, UniProt P37840); assay: alpha-synuclein aggregation inhibition (procedure similar to the ThT assay); assay type: biochemical; details: inhibition of alpha-synuclein aggregation; read-out: A-syn (IC50/μM)
Protocol: (§1) The kinetic ThT assay for Aβ aggregation is similar to that of Chalifour et al (Chalifour et al, 2003, J. Biol. Chem. 278:34874-81). Briefly, pre-treated Aβ40 (40 μM in 20 mM Tris, pH 7.4), was diluted with an equal volume of 8 μM ThT in Tris (20 mM, pH 7.4, 300 mM NaCl). Aliquots of Aβ/ThT (200 μL) were added to wells of a black polystyrene 96-well plate, followed by 2 μL of a compound in DMSO (variable concentration), or DMSO alone (controls). Incubations were performed in triplicate and were taken to contain 20 μM Aβ, various concentration of compound in 20 mM Tris, pH 7.4, 150 mM NaCl, 1% DMSO. Plates were covered with clear polystyrene lids and incubated at 37° C. in a Tecan Genios microplate reader. Fluorescence readings (λex=450 nm, λem=480 nm) were taken every 15 min., after first shaking at high intensity for 15 s and allowing to settle for 10 s before each reading. Active compounds attenuated the increase in fluorescence over time that occurred in controls. By repeating this procedure over several concentrations, a mean inhibitory concentration (IC50) was measured, as given in the table below. The column “A-syn” represents a similar procedure measuring inhibition of alpha-synuclein aggregation. The column “ratio” is a reproducible assessment of potency with respect to the compound of Example 7, in which 1=potency of that compound: […]

[2] = biological target: T2, Aβ40 (Homo sapiens, UniProt P05067); assay: ThT functional Aβ 1-40 aggregation assay; assay type: biochemical; details: for IC50: 20 μM Aβ, 20 mM Tris pH 7.4, 150 mM NaCl, 1% DMSO, 37° C.; for Ratio: potency with respect to the compound of Example 7, 1=potency of that compound
T2 construct: Compounds Showing Activity Observed in a ThT Functional Aβ 1-40 Aggregation Assay
Protocol: Aβ40 (1.0 mg) was pre-treated in a 1.5 mL microfuge tube with HFIP (1 mL) and sonicated for 20 min to disassemble any pre-formed Aβ aggregates. The HFIP was removed with a stream of argon and the Aβ dissolved in Tris base (5.8 mL, 20 mM, pH ˜10). The pH was adjusted to 7.4 with concentrated HCl (˜10 μL) and the solution filtered using a syringe filter (0.2 μm) before being used.
as §1

[3] = tested on: amyloid; assay: circular dichroism scans of amyloid with compound, T=0 to 168 hr (FIGS. 3-6); details: scans at T=0, 24 hr, 96 hr, 120 hr
[4] = tested on: tau protein; assay: tau protein aggregation over time (FIG. 1); assay type: biochemical; details: tau protein 4 μM; compound at 10 μM
[5] = biological target: beta-amyloid (Homo sapiens, UniProt P05067); details: cited from earlier work
[6] = biological target: T1, alpha-synuclein; assay: alpha-synuclein aggregation inhibition (procedure similar to the ThT assay); assay type: biochemical; details: alpha-synuclein 6 μM

T2 sequence (P05067 672-711 limits assumed): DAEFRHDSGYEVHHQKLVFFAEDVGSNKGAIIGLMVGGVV

Compound | IC50 [2] | Ratio [2] | other results
O=C(O)c1cccc(-c2ccc([N+](=O)[O-])c(NCc3ccccc3)c2)c1 [drawing 139] | 1.47 µM | 2.85 | IC50 [1]: 8 µM
CN(C)c1ccc(N2CCN(C(=O)c3ccccc3)CC2)cc1Nc1ccccc1 [Example 34, (4-(4-(dimethylamino)-3-(phenylamino)phenyl)piperazin-1-yl)(phenyl)methanone] |  |  | circular dichroism: effect on amyloid structure [3]: keeps amyloid from entering an aggregated structure
CCCNc1cc(N2CCN(C(=O)c3ccccc3)CC2)ccc1[N+](=O)[O-] [Example 6, (4-(4-nitro-3-(propylamino)phenyl)piperazin-1-yl)(phenyl)methanone] |  |  | ability to inhibit the aggregation of tau protein [4]: inhibit the aggregation of tau protein
Oc1ccc(C=Cc2cc(O)cc(O)c2)cc1 [resveratrol] |  |  | effective concentration for inhibition of beta-amyloid aggregation [5]: 5.6 µM
CN(C)c1cc([N+](=O)[O-])ccc1N1CCN(C(=O)c2ccccc2)CC1 [Example 25, N,N-dimethyl-2-(4-benzoylpiperazin-1-yl)-5-nitrobenzenamine] |  |  | circular dichroism: effect on amyloid structure [3]: keeps amyloid from entering an aggregated structure
O=C(O)c1cccc(-c2ccc([N+](=O)[O-])c(Nc3ccccc3)c2)c1 [drawing 149] | 9.23 µM | 2.3 | IC50 [1]: 10 µM
O=C(O)c1cccc(-c2ccc([N+](=O)[O-])c(Nc3ccccc3)c2)c1 [Example 46, 4′-nitro-3′-(phenylamino) biphenyl-3-carboxylic acid] |  |  | circular dichroism: effect on amyloid structure [3]: keeps amyloid from entering an aggregated structure
CN1CCN(c2ccc([N+](=O)[O-])c(NCc3ccccc3)c2)CC1 [Example 4, N-benzyl-5-(4-methylpiperazin-1-yl)-2-nitrobenzenamine] |  |  | ability to inhibit the aggregation of tau protein [4]: inhibit the aggregation of tau protein; inhibition at 10 µM ([6]; compound at 10 μM): 50%; inhibition of aggregation of alpha-synuclein ([6]; compound at 50 μM): full inhibition
O=C(Nc1ccccc1)c1cccc(-c2ccc([N+](=O)[O-])c(NCc3ccccc3)c2)c1 | 5730 µM | 0 | 
O=C(O)c1ccc(N2CCN(C(=O)c3ccccc3)CC2)cc1NCc1ccccc1 | 189 µM | 0.05 | 
CCN(CC)C(=O)c1ccc(N2CCN(C(=O)c3ccccc3)CC2)cc1NCc1ccccc1 | 361 µM | 0.05 | 
O=C(O)c1ccccc1-c1ccc([N+](=O)[O-])c(NCc2ccccc2)c1 | 41.9 µM | 0.5 | 
O=C(O)C1CCCN(c2ccc([N+](=O)[O-])c(NCc3ccccc3)c2)C1 (stereo not drawn) | 21.7 µM | 0.88 | 
O=[N+]([O-])c1ccc(Br)cc1NCc1ccccc1 | 20 to 50 µM |  | 
Nc1ccc(-c2cccc(C(=O)O)c2)cc1Nc1ccccc1 | 26.6 µM | 2.5 | IC50 [1]: 45 µM
CN1CCN(c2ccc([N+](=O)[O-])c(NCc3ccccc3)c2)CC1 [drawing 103] | 9 µM | 0.1 | IC50 [1]: 11.6 µM
O=C(c1ccccc1)N1CCN(c2ccc(NCCN3CCOCC3)c(Nc3ccccc3)c2)CC1 | 54.4 µM | 0.17 | 
CCc1ccc(C(=O)N2CCN(c3ccc([N+](=O)[O-])c(N4CCOCC4)c3)CC2)cc1 | 2.7 µM |  | 
O=[N+]([O-])c1ccc(N2CCNCC2)cc1Nc1ccccc1 | 8.82 µM | 0.54 | 
O=C(Nc1ccccc1)C1CCN(c2ccc([N+](=O)[O-])c(NCc3ccccc3)c2)CC1 | 544 µM | 0.05 | 
O=C(O)c1cccc(-c2ccc([N+](=O)[O-])c(NCc3ccccc3)c2)c1 [Example 54, 3′-(benzylamino)-4′-nitrophenyl-3-carboxylic acid] |  |  | circular dichroism: effect on amyloid structure [3]: keeps amyloid from entering an aggregated structure
CCNC(=O)c1ccc(N2CCN(C(=O)c3ccccc3)CC2)cc1NCc1ccccc1 | 66.2 µM | 0.13 | 
CCOC(=O)C1CCN(c2ccc([N+](=O)[O-])cc2C(=O)c2ccc(Cl)cc2)CC1 | > 20 µM |  | 

Further lines, with some results ahead:

IC50 [2] | Ratio [2] | Compound | other results
2.5 µM | 0.34 | CCCNc1cc(N2CCN(C(=O)c3ccccc3)CC2)ccc1[N+](=O)[O-] [drawing 105] | IC50 [1]: 142 µM
9.64 µM | 0.9 | CN(c1ccccc1)c1cc(N2CCN(C(=O)c3ccccc3)CC2)ccc1[N+](=O)[O-] | IC50 [1]: 5 µM
27 µM | 0.8 | CN(C)c1cc([N+](=O)[O-])ccc1N1CCN(C(=O)c2ccccc2)CC1 [drawing 150] | IC50 [1]: 15 µM
3.5 µM | 11 | CN(C)c1ccc(N2CCN(C(=O)c3ccccc3)CC2)cc1Nc1ccccc1 [drawing 157] | IC50 [1]: ~7 µM
10 to 20 µM | 0.09 | O=C(c1ccccc1)N1CCN(c2ccc([N+](=O)[O-])c(NCc3ccccc3)c2)CC1 | IC50 [1]: 51 µM
0.85 µM | 1 | O=C(c1ccccc1)N1CCN(c2ccc([N+](=O)[O-])c(Nc3ccccc3)c2)CC1 [Example 7, (4-(4-nitro-3-(phenylamino)phenyl)piperazin-1-yl)(phenyl)methanone] | IC50 [1]: 6.34 µM; ability to inhibit the aggregation of tau protein [4]: inhibit the aggregation of tau protein
7.8 µM | 1.3 | CNc1ccc(N2CCN(C(=O)c3ccccc3)CC2)cc1N(C)c1ccccc1 | 
265 µM | 0.03 | NC(=O)c1ccc(N2CCN(C(=O)c3ccccc3)CC2)cc1NCc1ccccc1 | 
360 µM | 0.06 | O=C(c1ccccc1)N1CCN(c2cccc([N+](=O)[O-])c2)CC1 [drawing 151] | 
92 µM | 0.34 | O=C(c1ccccc1)N1CCN(c2ccc([N+](=O)[O-])cc2Nc2ccccc2)CC1 | 
84 µM | 0.11 | CN(C)C(=O)c1ccc(N2CCN(C(=O)c3ccccc3)CC2)cc1NCc1ccccc1 | 
2.29 µM | 4.4 | CNc1ccc(N2CCN(C(=O)c3ccccc3)CC2)cc1Nc1ccccc1 | 
539 µM | 0.05 | O=C(c1ccccc1)N1CCN(c2cccc(Nc3ccccc3)c2)CC1 | 
238 µM | 0.04 | COc1ccc(N2CCN(C(=O)c3ccccc3)CC2)cc1Nc1ccccc1 | 
25 µM | 0.88 | CN(C)c1cc(N2CCN(C(=O)c3ccccc3)CC2)ccc1[N+](=O)[O-] | IC50 [1]: 4 µM
196 µM | 0.04 | O=C(c1ccccc1)N1CCN(c2cccc([N+](=O)[O-])c2)CC1 [drawing 132] | 
8.4 µM | 0.72 | CN(C)C(=O)N1CCN(c2ccc([N+](=O)[O-])c(Nc3ccccc3)c2)CC1 | 
1.9 µM | 9.9 | Nc1ccc(N2CCN(C(=O)c3ccccc3)CC2)cc1Nc1ccccc1 | 
18 µM | 0.22 | O=C(c1ccccc1)N1CCN(c2ccc([N+](=O)[O-])cc2NCc2ccccc2)CC1 | 
1040 µM | 0.01 | O=C(Nc1cc([N+](=O)[O-])ccc1N1CCN(C(=O)c2ccccc2)CC1)c1ccccc1 | 
